The record followed here is ChEMBL document CHEMBL5303304, “EUbOPEN Chemogenomics Library - IncuCyte” (2023).

SMILES strings stand for the structures.

Holding throughout (type): toxicity, cell-based
One series concerns HEK-293T. The experiment in a line: Incucyte cell viability with HEK293T. As to conditions: human, 10 µM, compound concentration 10 uM.
For another series, the system named is Fibroblast. The experiment in a line: Incucyte cell viability with human fibroblast. Particulars: 10 µM, compound concentration 10 uM.
The next series relates to U2OS. The experiment in a line: Incucyte cell viability with U2OS. Particulars: human, 10 µM, compound concentration 10 uM.
Also: unitless GR value; below 1 slowed growth and below 0 cell loss.

For the molecule `COc1ccc(S(=O)(=O)N2CCOCC2)cc1Nc1ccc2c(n1)N(C1CCN(C)CC1)[C@H](C)C(=O)N2C`, the “Growth Rate” value is on record as 0.97 in the series with HEK-293T (18 h, replicate number 1); 0.66 with HEK-293T (24 h, replicate number 1); 0.62 with HEK-293T (24 h, replicate number 2); 0.55 with Fibroblast (0 h, replicate number 2); 0.47 with Fibroblast (6 h, replicate number 1); -0.45 in the series on Fibroblast (6 h, replicate number 2). Also, the “Growth Rate” value in the series with Fibroblast (12 h, replicate number 1) is reported as 0.73; in the series with Fibroblast (12 h, replicate number 2), 0.26; in the series with Fibroblast (18 h, replicate number 1), 0.88; with Fibroblast (18 h, replicate number 2), 0.48; in the series with Fibroblast (24 h, replicate number 1), 0.86; in the series with Fibroblast (24 h, replicate number 2) it was 0.41. For the same molecule, the “Growth Rate” value is on record as 0.58 in the series with U2OS (0 h, replicate number 2); 0.86 with U2OS (12 h, replicate number 2); 0.83 in the series on U2OS (18 h, replicate number 1); 0.79 in the series on U2OS (18 h, replicate number 2); 0.45 with U2OS (24 h, replicate number 1); 0.72 with U2OS (24 h, replicate number 2).

For the molecule `O=C1NC(=NCc2cccs2)SC1=Cc1ccc2ncccc2c1`, the “Growth Rate” value in the series on HEK-293T (0 h, replicate number 1) was -1; with HEK-293T (0 h, replicate number 2), -0.11; in the series with HEK-293T (12 h, replicate number 2) it was 0.83; in the series on HEK-293T (18 h, replicate number 1), 0.84; in the series with HEK-293T (18 h, replicate number 2), 0.53; with HEK-293T (24 h, replicate number 1), 0.75. The “Growth Rate” value in the series on HEK-293T (24 h, replicate number 2) is 0.54; in the series with Fibroblast (0 h, replicate number 1), -1; in the series with Fibroblast (0 h, replicate number 2), -0.82; with U2OS (0 h, replicate number 1), -1; in the series on U2OS (6 h, replicate number 1), 0.68; in the series with U2OS (6 h, replicate number 2), 0.87. Besides, the “Growth Rate” value with U2OS (12 h, replicate number 1) was 0.27; in the series on U2OS (12 h, replicate number 2), 0.54; with U2OS (18 h, replicate number 1), 0; in the series on U2OS (18 h, replicate number 2), 0.45; with U2OS (24 h, replicate number 1) it was 0.51; in the series on U2OS (24 h, replicate number 2) it was 0.39.

Consider `CN(CCCCCCC1=C(c2cc(F)cc(F)c2)CCCc2cc(O)ccc21)CCCCS(=O)(=O)CCCC(F)(F)F`, for which the “Growth Rate” value with HEK-293T (6 h, replicate number 1) is -0.95; in the series on HEK-293T (6 h, replicate number 2), -0.98; in the series on HEK-293T (12 h, replicate number 1), -0.48; in the series on HEK-293T (12 h, replicate number 2), -0.83; in the series with HEK-293T (18 h, replicate number 1), -0.16; in the series with HEK-293T (18 h, replicate number 2) it was -0.52. For the same molecule, the “Growth Rate” value with HEK-293T (24 h, replicate number 1) is reported as -0.1; with HEK-293T (24 h, replicate number 2), -0.38; in the series on Fibroblast (0 h, replicate number 1), -1; in the series with Fibroblast (6 h, replicate number 1) it was -0.99; with Fibroblast (6 h, replicate number 2) it was -1; with Fibroblast (12 h, replicate number 1) it was -0.97. In addition, the “Growth Rate” value in the series on Fibroblast (18 h, replicate number 1) is -0.89; with Fibroblast (18 h, replicate number 2) it was -0.88; in the series on Fibroblast (24 h, replicate number 1), -0.77; in the series with Fibroblast (24 h, replicate number 2), -0.65; in the series on U2OS (0 h, replicate number 1), -1; with U2OS (0 h, replicate number 2), -0.54. For the same molecule, the “Growth Rate” value with U2OS (6 h, replicate number 1) was -0.96; in the series with U2OS (6 h, replicate number 2), -0.93; in the series on U2OS (12 h, replicate number 1), -0.94; with U2OS (12 h, replicate number 2) it was -0.68; in the series with U2OS (18 h, replicate number 1), -0.87; in the series with U2OS (18 h, replicate number 2), -0.58. For the same molecule, the “Growth Rate” value in the series with U2OS (24 h, replicate number 1) is -0.72; with U2OS (24 h, replicate number 2), -0.49.

Turning to `CCC(=N\O)/C(C)=C/c1ccc(F)cc1` [A-079], the “Growth Rate” value in the series with HEK-293T (6 h, replicate number 1) is listed as 0.09; with HEK-293T (6 h, replicate number 2), -0.79; with HEK-293T (12 h, replicate number 2) it was -0.09; in the series with HEK-293T (18 h, replicate number 2), 0.33; in the series with HEK-293T (24 h, replicate number 2) it was 0.57; with Fibroblast (0 h, replicate number 2) it was -0.47. The “Growth Rate” value is given as 0.02 in the series on Fibroblast (6 h, replicate number 1); 0.86 in the series with Fibroblast (18 h, replicate number 1); -0.97 in the series on U2OS (0 h, replicate number 2); 0.53 in the series with U2OS (6 h, replicate number 1); 0.16 in the series with U2OS (6 h, replicate number 2); 0.89 in the series on U2OS (12 h, replicate number 2). In addition, the “Growth Rate” value in the series with U2OS (18 h, replicate number 1) came to 1; in the series with U2OS (18 h, replicate number 2), 0.78; in the series with U2OS (24 h, replicate number 2), 0.79.

`Cl.O=C(NCCN1CCC2(CC1)C(=O)NCN2c1cccc(F)c1)c1ccc2ccccc2c1`: the “Growth Rate” value is -0.37 with HEK-293T (6 h, replicate number 1); -0.93 with HEK-293T (6 h, replicate number 2); 0.06 in the series on HEK-293T (12 h, replicate number 1); -0.68 in the series with HEK-293T (12 h, replicate number 2); 0.22 with HEK-293T (18 h, replicate number 1); -0.32 in the series on HEK-293T (18 h, replicate number 2). The “Growth Rate” value in the series on HEK-293T (24 h, replicate number 1) is 0.34; in the series on HEK-293T (24 h, replicate number 2) it was -0.14; with Fibroblast (0 h, replicate number 1) it was -1; in the series on Fibroblast (6 h, replicate number 1), -0.03; with Fibroblast (6 h, replicate number 2) it was -0.05; with Fibroblast (12 h, replicate number 1), -0.27. The “Growth Rate” value in the series with Fibroblast (12 h, replicate number 2) is listed as -0.26; in the series on Fibroblast (18 h, replicate number 1), -0.19; in the series with Fibroblast (18 h, replicate number 2) it was -0.07; with Fibroblast (24 h, replicate number 1), -0.27; with Fibroblast (24 h, replicate number 2), -0.14; in the series on U2OS (0 h, replicate number 1) it was -0.95. Moreover, the “Growth Rate” value is listed as -0.98 in the series with U2OS (0 h, replicate number 2); 0.46 with U2OS (6 h, replicate number 1); 0.73 in the series on U2OS (6 h, replicate number 2); 0.24 with U2OS (12 h, replicate number 1); 0.25 in the series on U2OS (12 h, replicate number 2); -0.13 in the series with U2OS (18 h, replicate number 1). Besides, the “Growth Rate” value is 0.23 with U2OS (18 h, replicate number 2); -0.24 with U2OS (24 h, replicate number 1); 0.17 with U2OS (24 h, replicate number 2).

In the case of `Cc1nnc2ccc(-c3cccc(C(F)(F)F)c3)nn12` [CI-218872], the “Growth Rate” value with HEK-293T (0 h, replicate number 1) was found to be 0.97; with HEK-293T (0 h, replicate number 2), 0.45; in the series on HEK-293T (12 h, replicate number 2) it was 0.87; with HEK-293T (18 h, replicate number 2) it was 0.95; in the series on HEK-293T (24 h, replicate number 2), 0.99; in the series on Fibroblast (6 h, replicate number 1), 0.38. Also, the “Growth Rate” value is given as -1 in the series with Fibroblast (6 h, replicate number 2); -1 in the series on Fibroblast (12 h, replicate number 1); 0.98 with Fibroblast (12 h, replicate number 2); 0.76 in the series with U2OS (6 h, replicate number 1); 0.83 with U2OS (6 h, replicate number 2); 0.88 with U2OS (12 h, replicate number 1). Also, the “Growth Rate” value stood at 0.84 with U2OS (18 h, replicate number 1) and 0.97 in the series on U2OS (18 h, replicate number 2).

For `COc1ccc(C(=O)N[C@H](C)c2cccc(C(=O)Nc3nc4c(s3)CN(C)CC4)c2)cc1C.O=C(O)C(F)(F)F`, the “Growth Rate” value with HEK-293T (0 h, replicate number 1) is -0.36; with Fibroblast (0 h, replicate number 1), 0.21; with Fibroblast (0 h, replicate number 2), -0.72; with U2OS (18 h, replicate number 2) it was 0.97; in the series on U2OS (24 h, replicate number 2), 0.88.

As for `CC(C)C[C@H](NC(=O)c1cc2ccccc2s1)C(=O)N1CCN(C(=O)[C@H](CO)NS(=O)(=O)c2ccc(Cl)cc2Cl)CC1`, the “Growth Rate” value was 0.99 in the series on HEK-293T (0 h, replicate number 1); -0.15 with HEK-293T (6 h, replicate number 1); -0.01 with HEK-293T (6 h, replicate number 2); 0.69 with HEK-293T (12 h, replicate number 1); 0.27 in the series on HEK-293T (12 h, replicate number 2); 0.71 in the series on HEK-293T (18 h, replicate number 1). Besides, the “Growth Rate” value in the series with HEK-293T (18 h, replicate number 2) is on record as 0.38; in the series with HEK-293T (24 h, replicate number 1), 0.78; in the series with HEK-293T (24 h, replicate number 2), 0.46; in the series with Fibroblast (6 h, replicate number 2), -0.86; in the series with Fibroblast (12 h, replicate number 1) it was -0.95; in the series on Fibroblast (12 h, replicate number 2), 0.01. Further, the “Growth Rate” value in the series on Fibroblast (18 h, replicate number 1) is listed as -0.18; in the series with Fibroblast (18 h, replicate number 2), 0.68; with Fibroblast (24 h, replicate number 1) it was 0; with Fibroblast (24 h, replicate number 2) it was 0.65; with U2OS (0 h, replicate number 2) it was -1; in the series on U2OS (6 h, replicate number 1), 0.27. Also, the “Growth Rate” value was 0.36 in the series with U2OS (6 h, replicate number 2); 0.93 in the series with U2OS (12 h, replicate number 1); 0.51 with U2OS (12 h, replicate number 2); 0.95 with U2OS (18 h, replicate number 1); 0.58 in the series on U2OS (18 h, replicate number 2); 0.66 in the series with U2OS (24 h, replicate number 2).
